These results are taken from patent US20250179029A1, “DEUTERATED RETINOIDAL COMPOUNDS AND SYNTHESIS AND USES THEREOF” (UNIVERSITY OF MARYLAND, BALTIMORE, priority 2022, published 2025).

Data set [1] can be described thus: Plasma pharmacokinetics after single oral dose in female CD-1 mice. The class given is in vivo. Conditions: for AUC(0-inf) / MRT (mean residence time) / T1/2 (elimination half-life) / Tmax / Cmax / overall Rank by Total Score: single p.o. dose 10 mg/kg, female CD-1 mice; for AUC(0-inf) / MRT (mean residence time) / T1/2 (elimination half-life) / Tmax / Cmax: plasma; for Cmax: mean of three mice; for clearance from systemic circulation (plasma concentration versus time profile) / systemic exposure: single PO dosing, mice, FIGS. 12A-12C. The protocol: The PK study was performed by the Certified Research Organization (CRO), Aragen Life Sciences Private Limited (Aragen), Hyderabad, India. All procedures of the present study were in accordance with the guidelines provided by the Committee for the Purpose of Control and Supervision of Experiments on Animals (CPCSEA) as published in The Gazette of India, Jan. 7, 2010. CPCSEA renewal number for institute is 1125/PO/Rc/S/CPCSEA on 13Feb. 2014. Institutional Animal Ethics Committee (IAEC) approval has been taken to initiate the study (IAEC Approval Number: B-011A). The details are presented in the Supplementary Materials.
To minimize the number of mice used in the PK study using a validated LC/MS/MS analysis, both individual (discrete) (set #1: Compound 5, EM=463.2937 and set #2: […], EM=463.2937) and cassette (set #3: Compounds 2, 3, and 7; EMs=459.2686, 462.2874 and 466.3125, respectively, and set #4: Compounds 4, 8, and 9; EMs=460.2749, 464.2999 and 467.3188, respectively) dosing were used.^59,66 The four sets studied were dictated by the exact molecular masses of the compounds as indicated above and in FIG. 3.
The plasma PK profiles were obtained after single oral (PO) dosing of the compounds in mice.
In Table 2, data are presented as the mean of values obtained from three female CD-1 mice. Cmax is the maximum observed plasma concentration. Tmax is the time to maximum concentration. T1/2 is the elimination half-life. AUC represents AUC (0-∞), which is the area under the concentration-time curve from time of dosing extrapolated to infinity. MRT refers to mean residence time. The number in parentheses indicate the rank order from best (1) to worst (8).

In data set [2] the test system is androgen-sensitive and castration-resistant human prostate cancer cells. Conditions: androgen-sensitive and castration-resistant human prostate cancer cells in vitro; cited from earlier work.
For data set [3], the system named is SKBR3. The data set is described as follows: MTT antiproliferative assay, SKBR3 non-TNBC cells. The conditions noted are these: Homo sapiens, SK-BR-3, mean of three independent experiments. In kind it is cell-based. The protocol:
(§1) Compounds 2, 4, 8 and 9, as well as paclitaxel (PTX) were evaluated over a range of concentrations to examine their antiproliferative activities against two non-TNBC cell lines, MCF7 and SKBR3using the well-established 3-(4,5-dimethylthiazolyl-2)-2,5-diphenyl tetrazolium bromide (MTT) assay.^48,55,56 The parent non-deuterated VNLG-152R (Compound 2) was used as the positive control.
(§2) As presented in Table 1 below, the GI50 values of the deuterated Compounds 4, 8 and 9 against the MCF7 cell are identical to the GI50 value of the parent protio VNLG-152R (Compound 2). In contrast, the SKBR3 cell appears to be more sensitive to the deuterated compounds compared to the parent non-deuterated VNLG-152R (Compound 2). The reason for this difference is not understood at this time. The applicant hypothesizes that the enhanced diffusion of these deuterated molecules across the cell membrane of this cell line may result in enhanced intracellular concentrations and inhibition of its proliferation. Each data point is a mean of replicates from three independent experiments.
(Tetrazolium assays rely on reduction of a dye to a coloured formazan, in cell work by metabolically active cells.)

In data set [4] the test system is MDA-MB-468 tumor xenograft. In words: Anti-tumor activity in MDA-MB-468 xenograft mouse model. In kind it is in vivo. The conditions noted are these: 20 mg/kg, PO, 5 days/week, 16 days. The protocol: (§3) FIGS. 13A-13D show the anti-tumor activity of VNLG-152R, Compound 4, Compound 8, and Compound 9 in xenograft mouse models. […] In FIGS. 13B and 13D, *=p<0.0001.
(§4) After confirming the improved pharmacokinetic parameters of deuterated compounds 4, 8, and 9, the anti-tumor activity of these compounds was tested in xenograft models of MDA-MB-231 and MDA-MB-468. In both models, the mice for each group were treated with either vehicle (control) or the compounds, each at 20 mg/kg, PO, 5 days/week.

Data set [5] deals with MDA-MB-231 tumor xenograft. The data set is described as follows: Anti-tumor activity in MDA-MB-231 xenograft mouse model. Conditions: 20 mg/kg, PO, 5 days/week, 16 days. The class given is in vivo. The protocol:
as §3, §4

The subject of data set [6] is MCF7. In words: MTT antiproliferative assay, MCF7 non-TNBC cells. The class given is cell-based. The conditions noted are these: Homo sapiens, mean of three independent experiments. The method, then:
as §1, §2

Read-outs that look alike come from different tables or passages of the source.

On to `[2H]c1nc([2H])n(C2CCC(C)(C)C(/C=C/C(C)=C/C=C/C(C)=C/C(=O)Nc3ccc(F)cc3)=C2C)c1[2H]` (racemic) [Compound 3, (±) 4-(Imidazolyl-2″3″5″-D3)-4-(H)-(4′-fluoro(phenyl))-(E)-retinamide], for which, in data set [1] (mouse, po), the AUC(0-inf) (commonly the area under the concentration-time curve extrapolated to infinity) is 1740 ng·h/mL. In data set [1], the “MRT (mean residence time)” value turned out to be 3.57 h; the “T1/2 (elimination half-life)” value was 8.39 h; the Tmax (as a rule, the time from dosing to the highest level) was 1.33 h; the Cmax – broadly, the maximum level reached in the sampled fluid or tissue – is listed as 151.17 ng/mL.

In the case of `CC1=C(/C=C/C(C)=C/C=C/C(C)=C/C(=O)Nc2ccccc2)C(C)(C)CCC1n1ccnc1` (centres unmarked) [VNLG-153, (2E,4E,6E,8E)-9-(3-imidazolyl-2,6,6-trimethylcyclohex-1-enyl)-3,7-dimethyl-N-phenylnona-2,4,6,8-tetraenamide], in data set [2], the “anti-proliferative and anti-metastatic activities” value is listed as “potent”.

In turn, `[2H]c1nc([2H])n(C2([2H])CCC(C)(C)C(/C=C/C(C)=C/C=C/C(C)=C/C(=O)Nc3ccc(F)cc3)=C2C)c1[2H]` (racemic) [Compound 5, (±) 4-(Imidazolyl-2″3″5″-D3)-4-(D)-(4′-fluoro(phenyl))-(E)-retinamide] gave an AUC(0-inf) in data set [1] (mouse, po) of 2700 ng·h/mL. Moreover, in data set [1], the “MRT (mean residence time)” value turned out to be 5.49 h, the “T1/2 (elimination half-life)” value was determined as 4.27 h, the Tmax is reported as 0.67 h and the Cmax turned out to be 500.72 ng/mL.

On to `[2H]c1nc([2H])n(C2([2H])CCC(C)(C)C(/C=C/C(C)=C/C=C/C(C)=C/C(=O)Nc3c([2H])c([2H])c(F)c([2H])c3[2H])=C2C)c1[2H]` (racemic) [Compound 9, (±) 4-(Imidazolyl-2″3″5″-D3)-4-(D)-(4′-fluoro(phenyl-2′3′5′6′-D4))-(E)-retinamide], for which halving of growth in data set [3] (GI50) required 100 ± 140 nM. The compound also yielded a tumor regression in data set [4] of 37%. For the same compound, the AUC(0-inf) in data set [1] (mouse, po) turned out to be 22600 ng·h/mL. For the same compound, in data set [1], the “MRT (mean residence time)” value came out at 8.92 h, the “T1/2 (elimination half-life)” value is given as 10.28 h, the time to peak (Tmax) is on record as 2.67 h and the Cmax came out at 1615.81 ng/mL. The compound also had a tumor regression in data set [5] of 67%. Moreover, it took 220 ± 130 nM to inhibit growth in data set [6] by half (GI50).

`[2H]C1(n2ccnc2)CCC(C)(C)C(/C=C/C(C)=C/C=C/C(C)=C/C(=O)Nc2ccc(F)cc2)=C1C` (racemic) [Compound 4, (±) 4-(Imidazolyl)-4-(D)-(4′-fluoro(phenyl))-(E)-retinamide]: the GI50 (commonly the concentration at which growth is held to half of that of the control) in data set [3] worked out at 140 ± 230 nM. The compound also registered a tumor regression in data set [4] of 6.6%. In data set [1] (mouse, po), this compound yielded an AUC(0-inf) of 17600 ng·h/mL. In data set [1], the “clearance from systemic circulation (plasma concentration versus time profile)” value is “could not be detected after 8 hours”, the systemic exposure entry is recorded as “very low systemic exposures”, the “overall Rank by Total Score” value came out at 2nd and the “MRT (mean residence time)” value is given as 9.06 h. For the same compound, in data set [1], the “T1/2 (elimination half-life)” value is reported as 12.05 h, the Tmax turned out to be 2.50 h and the highest concentration (Cmax) was found to be 1031.65 ng/mL. Also, the “reduction of tumor growth” value in data set [5] turned out to be 95%. It took 230 ± 250 nM to inhibit growth in data set [6] by half (GI50).

`[2H]c1c([2H])c(NC(=O)/C=C(C)/C=C/C=C(C)/C=C/C2=C(C)C([2H])(n3ccnc3)CCC2(C)C)c([2H])c([2H])c1F` (racemic) [Compound 8, (±) 4-(Imidazolyl)-4-(D)-(4′-fluoro(phenyl-2′3′5′6′-D4))-(E)-retinamide] registered a GI50 in data set [3] of 110 ± 200 nM. The “reduction of tumor growth” value in data set [4] was found to be 93%. Besides, the AUC(0-inf) in data set [1] (mouse, po) was 15500 ng·h/mL. Moreover, in data set [1], the “clearance from systemic circulation (plasma concentration versus time profile)” value was “could not be detected after 8 hours”, the systemic exposure result is given as “very low systemic exposures”, the “overall Rank by Total Score” value came to 3rd and the “MRT (mean residence time)” value came to 8.48 h. In data set [1], the “T1/2 (elimination half-life)” value is reported as 10.20 h, the time to peak (Tmax) is on record as 0.75 h and the Cmax is 1361.22 ng/mL. Further, the “reduction of tumor growth” value in data set [5] was 95%. Moreover, growth in data set [6] was halved (GI50) at 330 ± 140 nM.

`[2H]c1c([2H])c(NC(=O)/C=C(C)/C=C/C=C(C)/C=C/C2=C(C)C(n3ccnc3)CCC2(C)C)c([2H])c([2H])c1F` (racemic) [Compound 6, (±) 4-Imidazolyl-4(H)-(4′-fluoro(phenyl-2′3′5′6′-D4))-(E)-retinamide] gave an AUC(0-inf) in data set [1] (mouse, po) of 1730 ng·h/mL. Also, the time of peak concentration (Tmax) in data set [1] (mouse, po, read-out: Tmax) amounted to 0.83 h. Further, in data set [1], the “MRT (mean residence time)” value is given as 4.63 h, the “T1/2 (elimination half-life)” value was 4.90 h and the Cmax is 272.72 ng/mL.

For the compound `CC1=C(/C=C/C(C)=C/C=C/C(C)=C/C(=O)Nc2ccc(F)cc2)C(C)(C)CCC1=O` [Compound 16, 4-Oxo-(4′-fluoro(phenyl))-(E)-retinamide], in data set [1], the “MRT (mean residence time)” value was determined as 9.06 h and the “T1/2 (elimination half-life)” value turned out to be 12.05 h.

For the compound `CC1=C(/C=C/C(C)=C/C=C/C(C)=C/C(=O)Nc2ccccc2O)C(C)(C)CCC1n1ccnc1` (centres unmarked) [VNLG-147, (2E,4E,6E,8E)-N-(2-hydroxyphenyl)-9-(3-imidazolyl-2,6,6-trimethylcyclohex-1-enyl)-3,7-dimethylnona-2,4,6,8-tetraenamide], the “anti-proliferative and anti-metastatic activities” value in data set [2] was “potent”.

In data set [1] (mouse, po), `[2H]c1nc([2H])n(C2CCC(C)(C)C(/C=C/C(C)=C/C=C/C(C)=C/C(=O)Nc3c([2H])c([2H])c(F)c([2H])c3[2H])=C2C)c1[2H]` (racemic) [Compound 7, (±) 4-(Imidazolyl-2″3″5″-D3)-4-(H)-(4′-fluoro(phenyl-2′3′5′6′-D4))-(E)-retinamide] had an AUC(0-inf) of 2060 ng·h/mL. Besides, in data set [1], the “MRT (mean residence time)” value worked out at 2.89 h, the “T1/2 (elimination half-life)” value stood at 4.34 h, the Tmax is recorded as 0.83 h and the Cmax stood at 454.97 ng/mL.

With `CC(=O)O[C@H]1C(=O)[C@@]2(C)[C@H]([C@H](OC(=O)c3ccccc3)[C@]3(O)C[C@H](OC(=O)[C@H](O)[C@@H](NC(=O)c4ccccc4)c4ccccc4)C(C)=C1C3(C)C)[C@]1(OC(C)=O)CO[C@@H]1C[C@@H]2O` [Paclitaxel, paclitaxel, reference compound], the GI50 in data set [3] and in data set [6] was 60 ± 120 nM each time.
